Data as given in patent publication US9005575B2, “Arg-Gly-Asp-conjugated alpha-melanocyte stimulating hormone hybrid peptide for use in diagnosing and treating melanoma, including metastatic melanoma and methods related to same” (STC.UNM, priority 2009, dated 2015).
Like-named read-outs stand apart in the source and are kept apart here. Positions of bridges follow the written chain, without caps; N, C: chain ends. Non-standard residues stand in square brackets, D forms with d. Residues, ends and D or L forms follow the SMILES beside them.

Test: Biodistribution in B16/F1 melanoma-bearing C57 mice
Format: in vivo
Settings: female, C57, mouse, iv, total radioactivity; for tissue uptake dose at 0.5 h / tissue uptake at 0.5 h: 0.5 h post-injection; for tissue uptake dose at 4 h / tissue uptake at 4 h: 4 h post-injection; for tissue uptake dose at 24 h / tissue uptake at 24 h: 24 h post-injection
Experimental: All the animal studies were conducted in compliance with Institutional Animal Care and Use Committee approval. The pharmacokinetics of ^99mTc-RGD-Lys-(Arg^11)CCMSH was determined in B16/F1 melanoma-bearing C57 female mice (Harlan, Indianapolis, Ind.). C57 mice were subcutaneously inoculated on the right flank with 1×10^6 B16/F1 cells. The weight of tumors reached approximately 0.2 g 10 days post cell inoculation. Each melanoma-bearing mouse was injected with 0.037 MBq of ^99mTc-RGD-Lys-(Arg^11)CCMSH via the tail vein. Groups of 5 mice were sacrificed at 0.5, 2, 4 and 24 h post-injection, and tumors and organs of interest were harvested, weighed and counted. Blood values were taken as 6.5% of the whole-body weight. The MC1 receptor specificity of the tumor uptake was determined at 2 h post-injection by co-injecting ^99mTc-RGD-Lys-(Arg^11)CCMSH with 10 μg (6.1 nmol) of unlabeled NDP-MSH, a linear α-MSH peptide analogue with picomolar affinity for the MC1 receptors present on murine melanoma cells. The co-injection of 3.5 μg (6.1 nmol) of RGD peptide was performed to determine the αvβ3 integrin specificity of the tumor uptake 2 h post-injection. Statistical analysis was performed using the Student's t-test for unpaired data.
All the animal studies were conducted in compliance with Institutional Animal Care and Use Committee approval. The pharmacokinetics of ^99mTc-RGD-Arg-(Arg^11)CCMSH was determined in B16/F1 melanoma-bearing C57 female mice (Harlan, Indianapolis, Ind.). C57 mice were subcutaneously inoculated on the right flank with 1×10^6 B16/F1 cells. The weight of tumors reached approximately 0.2 g 10 days post cell inoculation. Each melanoma-bearing mouse was injected with 0.037 MBq of ^99mTc-RGD-Arg-(Arg^11)CCMSH via the tail vein. Groups of 5 mice were sacrificed at 0.5, 2, 4 and 24 h post-injection, and tumors and organs of interest were harvested, weighed and counted. Blood values were taken as 6.5% of the whole-body weight. The MC1 receptor specificity of the tumor uptake was determined at 2 h post-injection by co-injecting ^99mTc-RGD-Arg-(Arg^11)CCMSH with 10 μg (6.1 nmol) of unlabeled NDP-MSH. The co-injection of 3.5 μg (6.1 nmol) of RGD peptide was performed to determine the αvβ3 integrin specificity of the tumor uptake at 2 h post-injection.

[1] = bladder, 0.037 MBq, read-out: Bladder, Percentage Injected Dose
[2] = blood, 0.037 MBq, read-out: Blood, Percentage Injected Dose/gram
[3] = bone, 0.037 MBq, read-out: Bone, Percentage Injected Dose/gram
[4] = brain, 0.037 MBq, read-out: Brain, Percentage Injected Dose/gram
[5] = heart, 0.037 MBq, read-out: Heart, Percentage Injected Dose/gram
[6] = intestines, 0.037 MBq, read-out: Intestines, Percentage Injected Dose
[7] = kidneys, 0.037 MBq, read-out: Kidneys, Percentage Injected Dose/gram
[8] = liver, 0.037 MBq, read-out: Liver, Percentage Injected Dose/gram
[9] = lung, 0.037 MBq, read-out: Lung, Percentage Injected Dose/gram
[10] = muscle, 0.037 MBq, read-out: Muscle, Percentage Injected Dose/gram

CC(C)[C@H](NC(=O)[C@@H]1CCCN1C(=O)[C@H](CCCNC(=N)N)NC(=O)[C@H](CS)NC(=O)[C@H](Cc1c[nH]c2ccccc12)NC(=O)[C@H](CCCNC(=N)N)NC(=O)[C@@H](Cc1ccccc1)NC(=O)[C@H](Cc1c[nH]cn1)NC(=O)[C@H](CCC(=O)O)NC(=O)[C@H](CS)NC(=O)[C@H](CS)NC(=O)[C@H](CCCCN)NC(=O)[C@@H]1CC(=O)N[C@@H](CCCNC(=N)N)C(=O)NCC(=O)N[C@@H](CC(=O)O)C(=O)N[C@H](Cc2ccc(O)cc2)C(=O)N1)C(N)=O [^99mTc-RGD-Lys-(Arg^11)CCMSH, metal not drawn] (RGD[dY]DKCCEH[dF]RWCRPV-NH2; lactam N-5)
dose excreted at 2 h (bladder (urine), 0.037 MBq, 2 h post-injection, read-out: Bladder, Percentage Injected Dose (cleared through the urinary system)): 62.3 ± 8.16%
tissue uptake dose at 0.5 h [1]: 46.9 ± 2.54 %ID
tissue uptake dose at 4 h [1]: 68.7 ± 2.06 %ID
tissue uptake dose at 24 h [1]: 78.2 ± 5.29 %ID
tissue uptake dose at 2 h (bladder, 2 h post-injection, NDP blockade (10 μg NDP-MSH co-injected), read-out: Bladder, Percentage Injected Dose): 75.9 ± 1.75 %ID
tissue uptake dose at 2 h (bladder, 2 h post-injection, RGD blockade (3.5 μg RGD co-injected), read-out: Bladder, Percentage Injected Dose): 75.1 ± 3.69 %ID
tissue uptake at 0.5 h [2]: 3.18 ± 0.51 %ID/g
tissue uptake at 2 h (blood, 0.037 MBq, 2 h post-injection, read-out: Blood, Percentage Injected Dose/gram): 0.96 ± 0.87 %ID/g
tissue uptake at 4 h [2]: 0.5 ± 0.27 %ID/g
tissue uptake at 24 h [2]: 0.11 ± 0.07 %ID/g
tissue uptake at 2 h (blood, 2 h post-injection, NDP blockade (10 μg NDP-MSH co-injected), read-out: Blood, Percentage Injected Dose/gram): 0.32 ± 0.34 %ID/g
tissue uptake at 2 h (blood, 2 h post-injection, RGD blockade (3.5 μg RGD co-injected), read-out: Blood, Percentage Injected Dose/gram): 0.53 ± 0.17 %ID/g
tissue uptake at 0.5 h [3]: 1.53 ± 0.75 %ID/g
tissue uptake at 2 h (bone, 0.037 MBq, 2 h post-injection, read-out: Bone, Percentage Injected Dose/gram): 1.05 ± 0.31 %ID/g
tissue uptake at 4 h [3]: 0.98 ± 0.67 %ID/g
tissue uptake at 24 h [3]: 0.71 ± 0.39 %ID/g
tissue uptake at 2 h (bone, 2 h post-injection, NDP blockade (10 μg NDP-MSH co-injected), read-out: Bone, Percentage Injected Dose/gram): 0.78 ± 0.65 %ID/g
tissue uptake at 2 h (bone, 2 h post-injection, RGD blockade (3.5 μg RGD co-injected), read-out: Bone, Percentage Injected Dose/gram): 0.37 ± 0.42 %ID/g
tissue uptake at 0.5 h [4]: 0.13 ± 0.03 %ID/g
tissue uptake at 2 h (brain, 0.037 MBq, 2 h post-injection, read-out: Brain, Percentage Injected Dose/gram): 0.12 ± 0.03 %ID/g
tissue uptake at 4 h [4]: 0.07 ± 0.04 %ID/g
tissue uptake at 24 h [4]: 0.06 ± 0.01 %ID/g
tissue uptake at 2 h (brain, 2 h post-injection, NDP blockade (10 μg NDP-MSH co-injected), read-out: Brain, Percentage Injected Dose/gram): 0.06 ± 0.02 %ID/g
tissue uptake at 2 h (brain, 2 h post-injection, RGD blockade (3.5 μg RGD co-injected), read-out: Brain, Percentage Injected Dose/gram): 0.03 ± 0.01 %ID/g
tissue uptake at 0.5 h [5]: 2.1 ± 0.41 %ID/g
tissue uptake at 2 h (heart, 0.037 MBq, 2 h post-injection, read-out: Heart, Percentage Injected Dose/gram): 0.85 ± 0.16 %ID/g
tissue uptake at 4 h [5]: 0.62 ± 0.31 %ID/g
tissue uptake at 24 h [5]: 0.39 ± 0.14 %ID/g
tissue uptake at 2 h (heart, with RGD peptide, 3.5 μg (6.1 nmol) co-injected, 2 h post-injection, RGD blockade (3.5 μg RGD co-injected), read-out: Heart, Percentage Injected Dose/gram): 0.37 ± 0.23 %ID/g
tissue uptake at 2 h (heart, with unlabeled NDP-MSH, 10 μg (6.1 nmol) co-injected, 2 h post-injection, NDP blockade (10 μg NDP-MSH co-injected), read-out: Heart, Percentage Injected Dose/gram): 0.47 ± 0.18 %ID/g
tissue uptake dose at 0.5 h [6]: 3.27 ± 0.13 %ID
tissue uptake dose at 2 h (intestines, 0.037 MBq, 2 h post-injection, read-out: Intestines, Percentage Injected Dose): 3.14 ± 1.2 %ID
tissue uptake dose at 4 h [6]: 2.95 ± 0.62 %ID
tissue uptake dose at 24 h [6]: 1.13 ± 0.18 %ID
tissue uptake dose at 2 h (intestines, 2 h post-injection, NDP blockade (10 μg NDP-MSH co-injected), read-out: Intestines, Percentage Injected Dose): 1.97 ± 0.17 %ID
tissue uptake dose at 2 h (intestines, 2 h post-injection, RGD blockade (3.5 μg RGD co-injected), read-out: Intestines, Percentage Injected Dose): 1.88 ± 0.16 %ID
tissue uptake at 0.5 h [7]: 69.4 ± 5.37 %ID/g
tissue uptake at 2 h (kidneys, 0.037 MBq, 2 h post-injection, read-out: Kidneys, Percentage Injected Dose/gram): 67.1 ± 8.79 %ID/g
tissue uptake at 4 h [7]: 68.3 ± 14.3 %ID/g
tissue uptake at 24 h [7]: 40.3 ± 10.8 %ID/g
tissue uptake at 2 h (kidneys, 2 h post-injection, NDP blockade (10 μg NDP-MSH co-injected), read-out: Kidneys, Percentage Injected Dose/gram): 59.5 ± 9.98 %ID/g
tissue uptake at 2 h (kidneys, 2 h post-injection, RGD blockade (3.5 μg RGD co-injected), read-out: Kidneys, Percentage Injected Dose/gram): 54.2 ± 15.1 %ID/g
tissue uptake at 0.5 h [8]: 4.02 ± 0.42 %ID/g
tissue uptake at 2 h (liver, 0.037 MBq, 2 h post-injection, read-out: Liver, Percentage Injected Dose/gram): 3.17 ± 1.43 %ID/g
tissue uptake at 4 h [8]: 2.91 ± 0.8 %ID/g
tissue uptake at 24 h [8]: 1.73 ± 0.33 %ID/g
tissue uptake at 2 h (liver, 2 h post-injection, NDP blockade (10 μg NDP-MSH co-injected), read-out: Liver, Percentage Injected Dose/gram): 2.89 ± 0.25 %ID/g
tissue uptake at 2 h (liver, 2 h post-injection, RGD blockade (3.5 μg RGD co-injected), read-out: Liver, Percentage Injected Dose/gram): 2.27 ± 0.23 %ID/g
tissue uptake at 0.5 h [9]: 5.31 ± 0.53 %ID/g
tissue uptake at 2 h (lung, 0.037 MBq, 2 h post-injection, read-out: Lung, Percentage Injected Dose/gram): 1.26 ± 0.32 %ID/g
tissue uptake at 4 h [9]: 1.07 ± 0.42 %ID/g
tissue uptake at 24 h [9]: 0.94 ± 0.45 %ID/g
tissue uptake at 2 h (lung, 2 h post-injection, NDP blockade (10 μg NDP-MSH co-injected), read-out: Lung, Percentage Injected Dose/gram): 1.31 ± 0.47 %ID/g
tissue uptake at 2 h (lung, 2 h post-injection, RGD blockade (3.5 μg RGD co-injected), read-out: Lung, Percentage Injected Dose/gram): 1.12 ± 0.1 %ID/g
tissue uptake at 0.5 h [10]: 0.38 ± 0.17 %ID/g
tissue uptake at 2 h (muscle, 0.037 MBq, 2 h post-injection, read-out: Muscle, Percentage Injected Dose/gram): 0.34 ± 0.29 %ID/g
tissue uptake at 4 h [10]: 0.13 ± 0.07 %ID/g
tissue uptake at 24 h [10]: 0.23 ± 0.19 %ID/g
tissue uptake at 2 h (muscle, 2 h post-injection, NDP blockade (10 μg NDP-MSH co-injected), read-out: Muscle, Percentage Injected Dose/gram): 0.21 ± 0.12 %ID/g
tissue uptake at 2 h (muscle, 2 h post-injection, RGD blockade (3.5 μg RGD co-injected), read-out: Muscle, Percentage Injected Dose/gram): 0.15 ± 0.06 %ID/g
